{"source": "patent US20180371076A1", "about": "“MATERNAL TH17 CELLS AND PSYCHIATRIC DISORDERS” (New York University, priority 2017, published 2018)", "key": {"[1]": {"tested_on": "offspring of pregnant mice (MIA mouse model)", "assay": "Open field test in adult offspring", "format": "in vivo", "description": "Maternal Immune Activation. Mice were mated overnight and females were checked daily for the presence of seminal plugs, noted as embryonic day 0.5 (E0.5). On E12.5, pregnant female mice were weighed and injected with a single dose (20 mg/kg; i.p.) of poly(I:C) (Sigma Aldrich) or PBS vehicle. Each dam was returned to its cage and left undisturbed until the birth of its litter. All pups remained with the mother until weaning on postnatal day 21 (P21), at which time mice were group housed at maximum 5 per cage with same-sex littermates. For the IL-17 cytokine blockade experiment, monoclonal IL-17a blocking antibody (clone 50104; R&D) or isotype control antibody (IgG2a, clone 54447; R&D) was administered 6 h before maternal immune activation (FIG. 2) via i.p. route (500 μg/animal) or 2 days after maternal immune activation (FIG. 5) via i.p. route (500 μg/animal).\nOpen field test. Adult mice were placed in a 50×50 cm white Plexiglas box. Activity was recorded by a video camera and data was analyzed with Ethovision software (Noldus). The software allows display of the paths taken by the mice, and it measures the total distance moved into the center of the arena in a 10 min session."}, "IL-10": {"tested_on": "IL-10", "assay": "IL-10 ELISA of maternal serum and placenta/decidua extracts", "format": "in vivo, mouse", "conditions": "poly(I:C) at E12.5", "description": "Cell preparation, Flow cytometry, ELISA. Embryos at each implantation site were dissected in ice-cold HBSS containing Ca^2+ and Mg^2+. Myometrium was first peeled off of the decidua and embryos were discarded. Dissected decidual and placental tissues were then minced and enzymatically dissociated in HBSS containing 0.28 Wunsch units (WU)/mL Liberase (Roche) and 30 μg/ml DNase I (Roche) for 30 min at 37° C. with intermittent mixing. Digested tissues were washed in PBS containing 5 mM EDTA and 5% fetal bovine serum and then incubated again in the same buffer for 15 min at 37° C. prior to filtration through a cell strainer. After separation on a discontinuous 40% & 80% Percoll gradient, the mononuclear cell fraction was treated with ACK lysis buffer (Lonza). Mononuclear cells (1×10^6 cells/mL) were stimulated with phorbol 12-myristate 13-acetate (PMA, 50 ng/mL; Sigma), ionomycin (500 ng/mL; Sigma) in T cell media: RPMI 1640 (Invitrogen) supplemented with 10% (v/v) heat-inactivated FBS (Hyclone), 50 U penicillin-streptomycin (Invitrogen), 2 mM glutamine, and 50 μM β-mercaptoethanol. Cell culture supernatant was used for ELISA analyses. For flow cytometry, cells were incubated for 5 h with PMA, ionomycin and GolgiStop (BD). […] For ELISA with sera and placenta/decidua extract, IL-6 (Ebioscience), IL-17a (Biolgened), and IL-10 (BD) were measured according to the manufacturer's protocol. […]"}, "TNF-α": {"tested_on": "TNF-α", "assay": "TNF-α ELISA of maternal serum", "format": "in vivo, mouse", "conditions": "poly(I:C) at E12.5, 3 h, vs PBS", "description": "Cell preparation, Flow cytometry, ELISA Embryos at each implantation site were dissected in ice-cold HBSS containing Ca2+ and Mg2+ (Gibco). Myometrium was first peeled off of the decidua and embryos were discarded. Dissected decidual and placental tissues were then minced and enzymatically dissociated in HBSS containing 0.28 Wunsch units (WU)/mL Liberase (Roche) and 30 μg/mL DNase I (Roche) for 30 min at 37° C. with intermittent mixing. Digested tissues were washed in PBS containing 5 mM EDTA and 5% fetal bovine serum and then incubated again in the same buffer for 15 min at 37° C. prior to filtration through a cell strainer. […] Intracellular cytokine staining was performed according to the manufacturer's protocol (Cytofix/Cytoperm buffer set from BD with Pacific Blue-conjugated CD4, FITC or PerCP-Cy5.5-conjugated CD8, APC4 Cy7-conjugated TCR-β, PE-Cy7-conjugated anti-IL-17a, PE-conjugated anti-IFN-γ, PECy7-conjugated anti-CD25 and PE-conjugated Foxp3 (eBioscience). LSR II (BD Biosciences) and FlowJo software (Tree Star) were used for flow cytometry and analysis. Dead cells were excluded using the Live/Dead fixable aqua dead cell stain kit (Invitrogen). For ELISA with sera and placenta/decidua extract, IL-6 (Ebioscience), IL-17a, TNF-α, IL-1β, IFN-β (Biolgened), and IL-10 (BD) were measured according to the manufacturer's protocol."}}, "note": "“Also recorded” adds a separate entry of the source.", "data": [{"substance": "poly(I:C)", "values": [{"measurement": "total distance covered in open field", "setting": "[1]; offspring of MIA mothers", "result": "did not affect the total distance covered"}, {"measurement": "time in the center of an open field", "setting": "[1]; offspring of poly(I:C)-injected WT or RORγ/γt HET animals vs PBS-injected WT", "result": "significantly reduced time in the center"}, {"measurement": "IL-10 in serum and placenta/decidua extracts", "setting": "IL-10", "result": "not affected; also recorded: did not affect"}, {"measurement": "serum TNF-α", "setting": "TNF-α", "result": "strong induction"}]}]}
